Measured values reported in patent publication US11185077B2, “Attractants for rodents” (priority 2016, dated 2021).

Test system: wild house mice, Mus musculus
Test: Field experiments with paired trap boxes: trap captures of wild mice
Type: in vivo
Description: Two field experiments were run in parallel from Feb. 4, 2016 to Apr. 14, 2016 in Vancouver B.C. to evaluate the effect of synthetic androstenone (Experiment 7) and of synthetic progesterone and estrogen (Experiment 8) on trap captures of wild mice. Experimental replicates were set up as depicted in FIG. 7 along the interior walls and bird feeder areas of a plant and bird conservatory maintained under tropical conditions. Each replicate consisted of a pair of trap boxes (PROTECTA® Mouse, Bell Laboratories Inc., Madison, Wis. 53704, USA), with 50-cm spacing between boxes in each pair, and at least 2 m between pairs.
In Experiments 7 and 8, each box in each pair contained a snap trap (1) (FIG. 7) that was baited with a food lure (Musso et al. 2014). In Experiment 7, the trap box was also baited with the synthetic two-component sex pheromone of male mice (3,4-dehydro-exo-brevicomin and 2-sec-butyl-4,5-dihydrothiazole). The compounds were formulated in 10 g of mineral oil and dispensed from a custom-made scintillation vial (2) (FIG. 7). Each box in each pair also contained a piece of Whatman #1 filter paper that by random assignment was treated with 4 μg of synthetic androstenone dissolved in 50 μl ether (3a) or 50 μl ether (control; 4). […]
All boxes and snap traps in both experiments were checked every 48 h to 72 h, and test stimuli (food lure, male-specific pheromone blend in mineral oil, filter paper with or without hormones) were replaced at each visit.
Mouse captures in treatment and control traps were compared against an expected 50:50 distribution using χ^2 tests with Yates' correction for continuity (α=0.05). Replicates with captures in both trap boxes of a pair are not included in the graphical illustration and statistical analyses of data.
Four field experiments were run in Vancouver B.C. to evaluate the effect of synthetic androstenone and synthetic testosterone on captures of female wild mice and rats in combination with species-specific male sex pheromone blend. Experimental replicates were set up along the interior and exterior walls of buildings as depicted in FIG. 7. Experiment 15 evaluated captures of wild mice in trap boxes baited with high-levels of androstenone; Experiment 16 evaluated captures of wild rats in traps baited with high-levels of androstenone; Experiment 17 evaluated captures of wild mice in traps baited with low-levels of testosterone; and Experiment 18 evaluated captures of wild mice in traps baited with low-levels of androstenone. Experiment 15 was run from Feb. 4, 2016 to Apr. 14, 2016. Experiment 16 was run from Feb. 26, 2016 to Sep. 19, 2016. Experiments 17 and 18 were run in parallel from Jun. 2, 2016 to Sep. 8, 2016.
Each replicate of Experiments 15 to 18 consisted of a pair of trap boxes (Mice: PROTECTA® Mouse, Bell Laboratories Inc., Madison, Wis. 53704, USA; Rats: PROTECTA® Sidekick™; Bell Laboratories Inc., Madison, Wis. 53704), with 50-cm spacing between boxes in each pair, and at least 2 m between pairs. Each trap box contained an armed snap trap (1, Mice: Victor® Easy Set® Mouse Trap; Rats: Victor® Easy Set® Rat Trap; Woodstream Corp, Lititz, Pa. 17543, USA) baited with a cereal-based food bait and a scintillation vial (2) containing synthetic sex pheromone blends. Each box in each pair also contained a treatment stimulus that consisted of a piece of Whatman #1 filter paper (3a) that by random assignment was treated with: 4 μg of synthetic androstenone dissolved in 50 μl ether (Experiments 15 and 16); 750 μg of synthetic testosterone dissolved in 50 μl ether (Experiment 17); or 750 μg of synthetic androstenone dissolved in 50 μl ether (Experiment 18). The corresponding box in each pair contained a control stimulus which consisted of a piece of Whatman #1 filter paper (3b) treated with 50 μl ether. […]

[1] = Experiment 7, 4 μg synthetic androstenone, boxes also with food lure and male mouse sex pheromone
[2] = Experiment 15, 4 μg synthetic androstenone, with food bait and male mouse sex pheromone blend
[3] = Experiment 17, 750 μg synthetic testosterone (low-levels), with food bait and male mouse sex pheromone blend

| Compound | captures of adult female mice vs control boxes [1] | captures of juvenile female mice vs control boxes [1] | captures of juvenile and adult male mice (Experiment 15, 4 μg synthetic androstenone) | captures of adult female mice vs control boxes [2] | captures of juvenile female mice vs control boxes [2] | captures of juvenile and adult male mice (Experiment 18, 750 μg synthetic androstenone (low-levels)) | captures of female mice vs control traps (Experiment 18, 750 μg synthetic androstenone (low-levels), with food bait and male mouse sex pheromone blend) | captures of both adult and juvenile mice (Experiment 17, 750 μg synthetic testosterone (low-levels)) | captures of adult female mice vs control traps [3] | captures of juvenile female mice vs control traps [3] |
| --- | --- | --- | --- | --- | --- | --- | --- | --- | --- | --- |
| C[C@]12CCC(=O)C[C@@H]1CC[C@@H]1[C@@H]2CC[C@]2(C)C=CC[C@@H]12 [androstenone, 5α-androst-16-en-3-one] | significantly more | significantly more | no significant effect | significantly more | significantly more | no significant effect | did not differ statistically |  |  |  |
| C[C@]12CC[C@H]3[C@@H](CCC4=CC(=O)CC[C@@]43C)[C@@H]1CC[C@@H]2O [testosterone, (8R,9S,10R,13S,14S,17S)-17-hydroxy-10,13-dimethyl-1,2,6,7,8,9,11,12,14,15,16,17-dodecahydrocyclopenta[a]phenanthren-3-one, reference compound] |  |  |  |  |  |  |  | no significant effect | significantly more | significantly more |
